“Also recorded” adds a separate entry of the source.
Tests used:
patients [1] = conditions: cited from earlier work; for depression as adverse effect (literature): literature and Physicians' Desk Reference
patients [2] = experiment: Hamilton 24 (HAMD) depression scale, multicenter randomized controlled clinical study; format: in vivo, human; conditions: conclusion from the 4-week clinical study, vs ranitidine-group and baseline
Source text: The number of cases investigated was 119, which assured that the obtained data reach the level of statistical significance. […] During the statistical evaluation a probability level of p≦0.05 was regarded as significant.
Multicenter, randomized, controlled study; the study can be regarded blind with respect to the psychiatrist's assessment of the results.
4-week treatment period with the administration of the test—or reference medication.
On the occasion of the 1st visit (week-1-0) the recording of the medical history, physical examination, endoscopy (optional), the signing of the consent form, then the assessment of the extent of anxiety during the psychiatric examination, by using the Hamilton 24 (HAMD) and the MADRS (Montgomery Asberg) depression scales as well as the Hamilton Anxiety Rating Scale (HAMA). […]
(§1) The describing statistics (median, quartiles, average, dispersion, case-number, minimum and maximum values) were given for all numerical data variables (age, body weight, height, overall scores for HAMD and MADRS, as well as HAMA). […] The global parameters (the patient's opinion of the changes in the mood and the general condition, the physician's opinion of the general condition of the patient, and the psychiatrist's opinion of the changes in depression and anxiety) were assessed by applying the median-test (SAS NPAR1 WAY method).

patients [3] = conditions: 4-week clinical study
Source text: This is followed by a four-week (week 0-4) H2-blocker therapy performed on the basis of the former randomization applying either Quamatel®- or Zantac®—therapy. During randomization they have also taken the female-male ratio into consideration.
as §1

SMILES: CNC(=C[N+](=O)[O-])NCCSCc1ccc(CN(C)C)o1 [ranitidine]
- depression as adverse effect (literature) (patients [1]): development of depression could be unquestionably associated with ranitidine-therapy

SMILES: NC(N)=Nc1nc(CSCCC(N)=NS(N)(=O)=O)cs1 [famotidine]
- antidepressant / depression-reducing effect, conclusion of the study (patients [2]): specific depression-reducing effect; also recorded: significantly detectable antidepressant effect
- gastrointestinal efficacy compared with ranitidine (patients [3]): practically displaying the same gastrointestinal efficacy
- efficacy in schizophrenia (literature case studies) (patients [1]; case studies): effective in the management of schizophrenia
- depression as adverse effect (literature) (patients [1]): depression as one of the adverse reactions

SMILES: CN/C(=N/CCSCc1nc[nH]c1C)NC#N [cimetidine]
- depression as adverse effect (literature) (patients [1]): marked depressant effect
